Assay results taken from patent US20230146675A1, “PYRIMIDO[5,4-d]PYRIMIDINE DERIVATIVES AS ENT INHIBITORS FOR THE TREATMENT OF CANCERS, AND COMBINATION THEREOF WITH ADENOSINE RECEPTOR ANTAGONISTS” (ITEOS BELGIUM SA, priority 2020, published 2023).
pIC50: −log10 of the molar value. Like-named read-outs stand apart in the source and are kept apart here.

How the values were obtained:
[1] = biological target: T1, Human phosphodiesterase-4A1A (Homo sapiens, UniProt P27815); experiment: PDE4A1A (h) assay; format: biochemical
T1 construct: host or cells: Sf9 cells
Protocol: The test compound (compound 72), reference compound or water (control) were added to a buffer containing 40 mM Tris/HCl (pH 7.4) and 8 mM MgCl2, 450 nM cAMP and 0.25 μCi [3H]cAMP. Thereafter, the reaction was initiated by addition of the enzyme (about 3 U) and the mixture was incubated for 20 min at 22° C. For basal control measurements, the enzyme was omitted from the reaction mixture. Following incubation SPA beads were added. After 30 min at 22° C. under shaking, the amount of [3H]5′AMP was quantified with a scintillation counter (MicroBeta, Perkin Elmer). The results were expressed as a percent inhibition of the control enzyme activity.
The test compound (compound 72), reference compound or water (control) were added to a buffer containing 40 mM Tris/HCl (pH 7.4) and 8 mM MgCl2, 450 nM cAMP and 0.25 μCi [3H]cAMP. […] After 30 min at 22° C. under shaking, the amount of [3H]5′AMP was quantified with a scintillation counter (MicroBeta, Perkin Elmer). The results were expressed as a percent inhibition of the control enzyme activity. The standard inhibitory reference compound was Ro 20-1724, which was tested in each experiment at several concentrations to obtain an inhibition curve from which its IC50 value was calculated. • Human phosphodiesterase-4B1 quantified by measuring the formation of 5′AMP from cAMP using a human recombinant enzyme expressed in Sf9 cells.

[2] = test system: stimulated primary human T cells; experiment: T cell proliferation assay (rescue of proliferation in presence of 100 uM ATP); format: cell-based
Protocol: Purpose. The aim of this study was to determine the potency of equilibrative nucleoside transporter 1 (ENT1) inhibitors to rescue proliferation by stimulated primary human T cells incubated in the presence of 100 uM Adenosine triphosphate (ATP) with: • Condition A: X-VIVO15 • Condition B: X-VIVO15, 2% Human Serum Albumine (HSA) and 0.1% α-1-Acid Glycoprotein (AAG)
Method. Cryopreserved purified human CD3+ T cells were thawed and washed twice with RPMI1640 medium, UltraGlutamine containing 10% hiFBS.
Cells were suspended in PBS containing 10% hiFBS. Cells were stained with CFSE by adding 2 μM solution in PBS, to get a final 1 μM CFSE solution. Cells were incubated while rotating for 5 minutes. Reaction was stopped by adding PBS with 10% FBS and cells were centrifuged for 5 minutes at 1500 rpm.
Cells were resuspended at 1.6×10^6 cells/mL, either in X-VIVO15 medium or in 4% Human Serum Albumin and 0.2% α-1-Acid Glycoprotein. 50 μL of cell suspension (8×10^4 T cells) was added to wells of sterile round-bottom 96-well plates. Cells were activated by adding 50 μL of anti-CD3 anti-CD28 coated microbeads, suspended either in XVIVO-15 medium or in 4% HSA and 0.2% α-1-Acid Glycoprotein, at a ratio of one microbead per two cells.
Serial dilutions of the ENT1 inhibitors were prepared in X-VIVO15 from 10 mM stock solutions in DMSO, and 50 μL was added to the wells.
ATP powder was diluted in X-VIVO15, and 50 μL of this compound was added to the wells to reach a final assay concentration of 100 μM. Final volume of 200 μL.
The experiments were also performed in 384 well plates—all volumes reduced by a factor of 4 ([…]) with a final volume of 50 μL.
Experiments were performed in duplicate. The cells were placed in a 37° C. humidified tissue culture incubator with 5% CO2 for 72 hours for 96 well plates, 96 hours for 384 well plates. After 72 or 96 hours, proliferation was measured determined by CFSE dilution via flow cytometry.
Results. Compounds of the invention have good ENT1 inhibitory properties.

[3] = biological target: T2, Human phosphodiesterase-11A (Homo sapiens, UniProt Q9HCR9); experiment: PDE11A (h) assay; format: biochemical
T2 construct: host or cells: Sf9 cells
Protocol: The test compound (compound 72), reference compound or water (control) were added to a buffer containing 40 mM Tris/HCl (pH 7.4) and 8 mM MgCl2, 450 nM cAMP and 0.25 μCi [3H]cAMP. Thereafter, the reaction was initiated by addition of the enzyme (about 4 ng) and the mixture was incubated for 15 min at 22° C. For basal control measurements, the enzyme was omitted from the reaction mixture. Following incubation SPA beads were added. After 30 min at 22° C. under shaking, the amount of [3H]5′AMP was quantified with a scintillation counter (Topcount, Packard). The results were expressed as a percent inhibition of the control enzyme activity. The standard inhibitory reference compound was milrinone, which was tested in each experiment at several concentrations to obtain an inhibition curve from which its IC50 value was calculated. • Human phosphodiesterase-11A quantified by measuring the formation of 5′AMP from cAMP using a human recombinant enzyme expressed in Sf9 cells.
The test compound (compound 72), reference compound or water (control) were added to a buffer containing 40 mM Tris/HCl (pH 7.4) and 8 mM MgCl2, 450 nM cAMP and 0.25 μCi [3H]cAMP. […] After 30 min at 22° C. under shaking, the amount of [3H]5′AMP was quantified with a scintillation counter (MicroBeta, Perkin Elmer). The results were expressed as a percent inhibition of the control enzyme activity.

[4] = biological target: T3, human ENT1 (Homo sapiens, UniProt Q99808); experiment: Uridine transport inhibition assay (3H-uridine uptake, MDCKII-ENT1-LV cells); format: cell-based; conditions: 3H-uridine (1 μM), 1 min at 25° C.
T3 sequence (Q99808 1-456): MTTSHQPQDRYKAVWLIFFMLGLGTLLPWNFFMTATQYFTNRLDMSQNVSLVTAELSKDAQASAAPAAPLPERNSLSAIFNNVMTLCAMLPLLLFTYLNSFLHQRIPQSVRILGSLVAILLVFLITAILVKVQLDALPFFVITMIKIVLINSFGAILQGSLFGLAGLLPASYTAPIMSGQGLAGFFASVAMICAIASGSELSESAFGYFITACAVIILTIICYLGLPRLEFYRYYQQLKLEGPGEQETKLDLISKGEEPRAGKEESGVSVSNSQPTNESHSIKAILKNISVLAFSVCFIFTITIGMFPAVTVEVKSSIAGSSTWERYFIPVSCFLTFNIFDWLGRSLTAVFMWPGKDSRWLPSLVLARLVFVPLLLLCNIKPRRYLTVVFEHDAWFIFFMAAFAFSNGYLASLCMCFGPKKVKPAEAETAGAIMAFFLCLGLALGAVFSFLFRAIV
Text: Purpose. The aim of this study was to determine the potency of equilibrative nucleoside transporter 1 (ENT1) inhibitors by measuring ENT1-mediated transport is the cellular uptake assay. The human ENT1 transporter can be stably expressed in Madin-Darby Canine Kidney II (MDCKII) cells via transduction. Uridine is efficiently transported by ENT1 and is used as probe in the assay as 3H-uridine. The interaction is detected as the modulation of the initial rate of 3H-uridine transport by human ENT1 into MDCKII-ENT1-LV cells stably expressing ENT1 uptake transporter.

T2 sequence (Q9HCR9 whole entry): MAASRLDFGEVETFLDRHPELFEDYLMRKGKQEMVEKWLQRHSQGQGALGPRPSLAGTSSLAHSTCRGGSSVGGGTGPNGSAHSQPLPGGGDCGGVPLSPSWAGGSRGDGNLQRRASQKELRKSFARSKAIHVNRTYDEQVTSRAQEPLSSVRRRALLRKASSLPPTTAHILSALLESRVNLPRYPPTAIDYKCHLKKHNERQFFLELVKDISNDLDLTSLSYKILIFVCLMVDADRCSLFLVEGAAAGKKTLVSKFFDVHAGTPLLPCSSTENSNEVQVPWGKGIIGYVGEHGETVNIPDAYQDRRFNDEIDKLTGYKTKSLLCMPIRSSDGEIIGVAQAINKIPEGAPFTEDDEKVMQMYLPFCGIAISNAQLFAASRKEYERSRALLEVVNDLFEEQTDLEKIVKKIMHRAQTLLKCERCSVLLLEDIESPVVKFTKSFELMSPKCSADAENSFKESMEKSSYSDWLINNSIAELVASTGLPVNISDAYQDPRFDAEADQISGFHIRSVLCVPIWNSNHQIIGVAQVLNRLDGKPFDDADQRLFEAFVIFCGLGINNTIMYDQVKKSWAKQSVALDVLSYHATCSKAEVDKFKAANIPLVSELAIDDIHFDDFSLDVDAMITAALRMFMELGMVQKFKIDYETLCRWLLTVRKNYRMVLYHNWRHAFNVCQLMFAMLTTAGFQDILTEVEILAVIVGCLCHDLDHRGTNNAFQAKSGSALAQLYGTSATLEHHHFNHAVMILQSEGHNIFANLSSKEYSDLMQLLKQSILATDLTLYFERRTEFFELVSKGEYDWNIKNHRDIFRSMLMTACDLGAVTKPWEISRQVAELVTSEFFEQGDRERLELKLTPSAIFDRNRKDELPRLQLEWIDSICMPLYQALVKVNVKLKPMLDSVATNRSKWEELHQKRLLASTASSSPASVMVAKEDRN
T1 sequence (P27815 1-647 isoform P27815-4): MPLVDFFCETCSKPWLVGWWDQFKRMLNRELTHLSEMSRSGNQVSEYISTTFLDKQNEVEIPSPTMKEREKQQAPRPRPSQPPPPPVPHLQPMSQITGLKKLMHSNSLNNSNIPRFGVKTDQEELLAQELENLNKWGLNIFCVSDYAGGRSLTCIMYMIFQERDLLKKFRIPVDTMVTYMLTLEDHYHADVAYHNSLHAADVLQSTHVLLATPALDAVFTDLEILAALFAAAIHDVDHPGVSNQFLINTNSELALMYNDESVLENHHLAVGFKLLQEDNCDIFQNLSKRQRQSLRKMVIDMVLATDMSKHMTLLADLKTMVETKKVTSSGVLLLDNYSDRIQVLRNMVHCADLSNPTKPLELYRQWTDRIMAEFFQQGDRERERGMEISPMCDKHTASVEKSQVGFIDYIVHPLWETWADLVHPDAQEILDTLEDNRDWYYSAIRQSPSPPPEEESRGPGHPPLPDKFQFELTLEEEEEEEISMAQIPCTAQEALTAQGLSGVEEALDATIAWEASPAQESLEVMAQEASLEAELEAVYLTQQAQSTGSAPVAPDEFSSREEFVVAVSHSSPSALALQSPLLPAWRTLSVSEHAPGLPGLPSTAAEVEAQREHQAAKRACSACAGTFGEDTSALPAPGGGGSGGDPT

pIC50 [1]: < 5.00
pIC50 [3]: < 5.00
potency for PDE11A as compared to dipyridamole [3]: reduced as compared to dipyridamole
pIC50 [4]: > 7.00
Compound: COCCN(CCOC)c1nc(N2CCN(C)C(=O)C2)c2nc(N(CCOC)CCOC)nc(N3CCC(OC)CC3)c2n1 [Compound 72, 4-(2,6-bis(bis(2-methoxyethyl)amino)-8-(4-methoxypiperidin-1-yl)pyrimido[5,4-d]pyrimidin-4-yl)-1-methylpiperazin-2-one]
pIC50 ([2]; Condition A: X-VIVO15, read-out: TCell proliferation (Condition A) IC50): 6.30 to 7.00
pIC50 ([2]; Condition B: X-VIVO15, 2% HSA and 0.1% AAG, read-out: TCell proliferation (Condition B) IC50): 6.30 to 7.00
